The target in test [1] is T1, human AR (Homo sapiens, UniProt P10275).
T1 construct: expressed in transfected cells; host or cells: COS-1
T1 sequence (P10275 1-920): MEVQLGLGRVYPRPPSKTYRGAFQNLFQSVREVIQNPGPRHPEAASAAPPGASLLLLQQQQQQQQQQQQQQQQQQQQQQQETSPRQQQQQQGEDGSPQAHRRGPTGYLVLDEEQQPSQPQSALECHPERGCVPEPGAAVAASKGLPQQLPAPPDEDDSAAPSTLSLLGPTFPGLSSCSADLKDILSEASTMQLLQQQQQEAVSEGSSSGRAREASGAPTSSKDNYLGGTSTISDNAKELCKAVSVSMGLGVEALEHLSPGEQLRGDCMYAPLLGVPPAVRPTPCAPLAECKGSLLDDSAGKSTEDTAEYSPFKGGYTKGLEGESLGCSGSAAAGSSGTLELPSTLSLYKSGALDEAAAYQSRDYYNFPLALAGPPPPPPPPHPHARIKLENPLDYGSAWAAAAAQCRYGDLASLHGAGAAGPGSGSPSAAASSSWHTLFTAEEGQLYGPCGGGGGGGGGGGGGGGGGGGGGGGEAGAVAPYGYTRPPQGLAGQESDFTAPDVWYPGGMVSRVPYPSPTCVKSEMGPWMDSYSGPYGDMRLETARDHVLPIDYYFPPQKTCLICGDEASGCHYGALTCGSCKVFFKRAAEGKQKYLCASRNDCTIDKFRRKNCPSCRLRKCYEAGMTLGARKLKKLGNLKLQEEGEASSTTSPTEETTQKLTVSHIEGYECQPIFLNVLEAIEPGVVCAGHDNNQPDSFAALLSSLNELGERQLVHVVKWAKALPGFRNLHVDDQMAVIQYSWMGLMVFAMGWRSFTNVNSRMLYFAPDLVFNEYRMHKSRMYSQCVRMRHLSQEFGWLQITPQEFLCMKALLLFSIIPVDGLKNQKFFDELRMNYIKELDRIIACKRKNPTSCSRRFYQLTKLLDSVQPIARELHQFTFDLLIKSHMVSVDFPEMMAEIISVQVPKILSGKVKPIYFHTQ
The experiment in a line: AR antagonism assay: inhibition of transcriptional activation of AR (Probasin-luc reporter, COS-1 cells). In kind it is cell-based. The following applies: compound 10.0 μM; relative luciferase response: 100% for testosterone (no antiandrogenic effect), 0% for complete antagonism. An outline of the steps:
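COS-1 cells transfected 24 h with human AR vector, Probasin-luc reporter and β-gal control, then exposed 18 h at 37 °C to 10 μM compound plus 100 nM testosterone. Luciferase read-out normalised to β-galactosidase activity and protein content.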

Test [2] addresses T1, human AR. Kind of test: Competitive AR binding assay against [3H]-R1881 in transiently transfected COS-1 cells. Particulars: compound 13.4 μM, [3H]-R1881 1.34 nM, complete inhibition equals 100%, read-out: Inhibition of [3H]-R1881 binding at 1.34 nM ± S.D. The procedure, abridged: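 COS-1 cells transfected 24 h with human AR vector, then after 36 h exposed 2 h at 37° C to compound at 10000-fold molar excess over 1.34 nM [3H]-R1881. Cell-bound radioactivity counted in triplicate; result given as % inhibition of labelled R1881 binding.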

Read-outs that look alike come from different tables or passages of the source.

The record followed here is patent publication US9278942B2, “Non-steroidal compounds as androgen receptor modulators” (FLX Discoveries Oy, priority 2011, dated 2016).

As to `CC(C)(O)C(=O)Nc1ccc([N+](=O)[O-])c(C(F)(F)F)c1` [Hydroxyflutamide, reference compound], the “AR antagonism against 100 nM testosterone ± S.D.” value at human AR [1] was 13.0 ± 1.1%. Further, the inhibition at 13.4 µM was determined as 91.1 ± 2.2% on human AR [2] (Table 1), 94.8 ± 0.8% on human AR [2] (Table 2) and 95.2 ± 2.9% at human AR [2] (Table 3).
